Read-outs that look alike come from different tables or passages of the source.
Key:
[1] = target: T1, LXRα ligand binding domain (Homo sapiens, UniProt Q13133); experiment: dual luciferase reporter gene assay, LXRα-LBD/GAL4-DBD in HEK-293 cells; assay type: cell-based
T1 construct: expressed in transfected cells; host or cells: HEK-293
T1 sequence (Q13133 164-447): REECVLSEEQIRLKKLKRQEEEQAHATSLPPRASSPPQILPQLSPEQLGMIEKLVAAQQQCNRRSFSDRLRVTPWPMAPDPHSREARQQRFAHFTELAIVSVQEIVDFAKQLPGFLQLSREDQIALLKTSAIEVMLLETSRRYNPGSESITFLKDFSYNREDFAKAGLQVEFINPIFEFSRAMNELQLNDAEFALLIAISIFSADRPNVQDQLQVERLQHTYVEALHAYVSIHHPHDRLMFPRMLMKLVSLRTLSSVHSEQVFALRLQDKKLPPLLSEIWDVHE
Method: (§1) The ligand binding domain (LBD) of LXRα (amino acids 164 to 447) or LXRβ (amino acids 154 to 461) was cloned into pBIND [Renilla/Amp] vector (Promega). Selection and amplification were performed in E. coli cells. Purification of the plasmids was performed with a plasmid purification kit (Qiagen). For transfection HEK-293 cells were plated in 96-well plates (TPP) at a density of 3.5×10^4 cells/well for 24 h. To investigate the ligand binding on LXRα ligand binding domain, 0.04 ng of renilla luciferase coding plasmide pGL4.75 (Promega), 0.04 ng of LXRα-LBD/GAL4-DBD plasmide and 80 ng of firefly luciferase coding plasmide pGL4.31 (Promega) were used in a total volume of 200 µL for each well. For LXRβ binding assay 40 ng of LXRβ-LBD/GAL4-DBD plasmide were applied in each transfection mix. Transfection was carried out for 4 h with Lipofectamine 2000 Transfection Reagent (Invitrogen) in Opti-MEM medium (Invitrogen). Ligand treatment was performed at different concentrations for 24 h. For lysis and detection dual-luciferase reporter gene assay system (Promega) and POLARstar Omega (BMG LABTECH) were used.

THP1-derived foam cells [2] = experiment: Western blot of LXRα and APOE in foam cells; assay type: cell-based, human; conditions: Western blot densitometry
Method: (§2) We used the human THP1 cell line, which is widely applied as a macrophage and foam cell model with similar properties as primary cells. […] For generating macrophages differentiation was induced by 10^−8 M Phorbol 12-myristate 13-acetate (PMA) (Sigma-Aldrich) for 48 h. Ligand treatment of macrophages was performed for further 24 h. To induce foam cell formation macrophages were treated for additional 48 h with 100 µg/mL modified human oxidized low density lipoprotein (oxLDL) obtained from Source BioScience (RP-048). Ligand treatment was performed simultaneously with foam cell formation. Cholesterol loading and treatment was controlled with Oil Red O staining (Alfa Aeser). To investigate ligand induced effects on cell proliferation of THP-1 macrophages CellTiter-Glo Luminescent Cell Viability Assay (Promega) was utilized.
Whole cell extracts were harvested from three biological replicates and denaturized for SDS-PAGE (NuPAGE Novex 4–12% Bis-Tris Gels). Proteins were blotted on nitrocellulose Hybond ECL membrane and incubated with strictly validated published antibodies against LXRα (Abcam, ab 41902), APOE (Abcam ab1906), and as housekeeping protein control β-Actin (Santa Cruz Biotechnology, sc-47778, C4). […] This tool measures quantitatively the optical density and provides more accurate data than simple eye-observations. […]

THP1-derived foam cells [3] = experiment: cholesterol and triglyceride content in foam cells; assay type: cell-based, human; conditions: 10 µM, 48 h, vs. DMSO
Method: as §2
(§3) THP-1 monocytes were plated out into 24-well plates (Nunc) at a density of 2×10^5 cells/well. After differentiation and treatment cells were lysed with 100 µL lysis buffer (PBS, 0.25 M NaCl, 1% Triton X-100). Total and free cholesterol were determined using the colorimetric enzymatic Amplex Red Cholesterol Assay Kit (Invitrogen). Triglycerides were quantified by Triglyceride Assay Kit (BioVision). For normalisation protein content was determined with Pierce 660 nm Protein Assay Reagent (Thermo Scientific).

THP-1 macrophages [4] = experiment: triglyceride content in macrophages; assay type: cell-based, human; conditions: 10 µM, 48 h, vs. DMSO
Method: as §2, §3

[5] = target: T2, LXRβ ligand binding domain (Homo sapiens, UniProt P55055); experiment: dual luciferase reporter gene assay, LXRβ-LBD/GAL4-DBD in HEK-293 cells; assay type: cell-based
T2 construct: expressed in transfected cells; host or cells: HEK-293
T2 sequence (P55055 154-460 limits assumed): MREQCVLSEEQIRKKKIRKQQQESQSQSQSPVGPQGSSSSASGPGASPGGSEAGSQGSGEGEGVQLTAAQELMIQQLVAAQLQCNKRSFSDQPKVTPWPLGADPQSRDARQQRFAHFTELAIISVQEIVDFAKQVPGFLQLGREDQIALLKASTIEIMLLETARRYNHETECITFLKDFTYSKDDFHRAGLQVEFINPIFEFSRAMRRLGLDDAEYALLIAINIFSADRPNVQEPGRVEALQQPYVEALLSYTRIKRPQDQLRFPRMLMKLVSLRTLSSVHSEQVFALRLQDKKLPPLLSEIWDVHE
Method: as §1

THP-1 macrophages [6] = experiment: gene expression of LXRα target genes (qPCR) in THP-1 macrophages; assay type: cell-based, human; conditions: for expression of LXRα target genes (LXRα, SREBF1, ABCA1, APOE): 10 µM, 24 h
Method: as §2
(§4) Total RNA isolation and purification was performed by using the RNeasy Mini Kit (QIAGEN) and RNase-Free DNase Set (QIAGEN). cDNA was generated by reverse transcription using the High Capacity cDNA Reverse Transcription Kit (Life Technologies). Gene expression was quantified using the SYBR Green PCR Master Mix (Life Technologies) and ABI 7900HT Fast Real Time PCR System (Life Technologies). In each reaction 0.8 ng/µL cDNA and 0.2 µM primers were used. Gene expression was calculated with the ΔΔCt-method. ß-Actin was used for normalisation.

THP1-derived foam cells [7] = experiment: gene expression of LXRα target genes (qPCR) in oxLDL-loaded foam cells; assay type: cell-based, human; conditions: 10 µM
Method: as §2, §4

[8] = +DMSO, transcriptional activation vs. T09

Q: With `CC(C)CC[C@@H](O)[C@@H](C)[C@H]1CC[C@H]2[C@@H]3CC=C4C[C@@H](O)CC[C@]4(C)[C@H]3CC[C@]12C` [22-R-Hydroxycholesterol, reference compound] as the compound, how does the EC50 [1] read?
A: Its EC50 is 13300 nM.

Q: And the Efficacy [1, 8]?
A: The Efficacy was 4%.

Q: Which results are given for `C(=C\c1ccc(OCC2CO2)cc1)/c1ccccc1` (stereo not drawn) [STX4, 2-[[4-[(E)-styryl]phenoxy]methyl]oxirane]?
A: Efficacy ([1]; +200 nM T0901317 (additive)): 47%; EC50 ([1]; +200 nM T0901317 (additive), read-out: EC50): 28 nM; EC50 ([1]; +DMSO, LXRα reporter gene, HEK-293, 24 h, read-out: EC50): 35 nM; Efficacy [1, 8]: 6%; protein expression levels of LXRα target genes (LXRα, APOE) (THP1-derived foam cells [2]): increased protein expression levels; total and esterified cholesterol content (THP1-derived foam cells [3]): significant reduction; triglyceride levels (THP1-derived foam cells [3]): not increased; triglyceride level (THP-1 macrophages [4]): stayed rather unchanged; Transcriptional activation of LXRβ [5]: does not activate; expression of LXRα target genes (LXRα, SREBF1, ABCA1, APOE) (THP-1 macrophages [6]): not; ABCA1 expression with STX4 in the presence of T09 (THP-1 macrophages [6]; presence of 1 µM T09): additive effects; expression of LXRα target genes (LXRα, SREBF1, ABCA1, APOE) (THP1-derived foam cells [7]): potent target gene expression similar to T09

Q: Which “total and esterified cholesterol content” value (THP1-derived foam cells [3]) does the source give for `O=S(=O)(c1ccccc1)N(CC(F)(F)F)c1ccc(C(O)(C(F)(F)F)C(F)(F)F)cc1` [T0901317, reference compound] here?
A: Its value is “significant reduction”.

Q: What about the triglyceride levels (THP1-derived foam cells [3]) of the same compound?
A: The triglyceride levels was “increased triglyceride levels”.

Q: What about the triglyceride level (THP-1 macrophages [4]) of the same compound?
A: The triglyceride level was “stayed rather unchanged”.

Q: What about the “expression of LXRα target genes (LXRα, SREBF1, ABCA1, APOE)” value (THP-1 macrophages [6]) of the same compound?
A: The value was “increased expression”.

From publication PMC3581588, “Foam Cell Specific LXRα Ligand” (PLoS ONE, 2013)
